# In US5348960A, “Imidazo[4,5-b]quinolinyl oxy alkyl tetrazolyl piperidine derivatives” (Bristol-Myers Squibb Company, priority 1993, dated 1994):
# Structures can show the parent of a compound that is named as a salt.
# Columns and labels:
# [1] = tested on: ADP-induced aggregation of human blood platelets; experiment: cells; type: cell-based; conditions: Platelet, read-out: IC50 vs ADP in human PRP
# Protocol: The aggregometer method of Born, C. V. R., J. Physiol., (London), 162, 67-68, (1962) as modified by Mustard, J. F., et al., J. Lab. Clin. Med., 64, 548-599, (1964) was used to assess the in vitro activity of the various compounds as to the inhibition of adenosine diphosphate (ADP) and collagen-induced platelet aggregation. The human volunteer donor's arm is cleansed with 70% ethyl alcohol. A sterile 20 ml syringe and needle are used to withdraw 20 ml of blood. The blood is immediately added to a test tube containing 3.8% sodium citrate to prevent clotting (1 part citrate to 9 parts blood).
# Platelet rich plasma (PRP) was separated by centrifugation for 10 minutes at 1000 rpm (140xg) from citrated (3.8%) human blood. All glassware used for preparation of PRP is silicon treated. ADP in final concentration of 0.5 μg/mL or 0.05 mL of a collagen suspension prepared according to the method described by Evans, G., et al., J. Exp. Med., 128, 877-894, (1968) was used to induce aggregation. The various compounds tested were dissolved in dimethylsulfoxide (DMSO) so that 5 μl added to the platelet rich plasma would yield the desired test concentration. Vehicle control trials were done and compared with aggregation induced in platelet rich plasma containing various concentrations of the test compounds. Dose response curves were obtained and Inhibitor Concentration (IC50) values calculated.
# The target compounds were evaluated as inhibitors of ADP-induced aggregation of human blood platelets in platelet-rich-plasma (PRP) in vitro. The test compounds were incubated at about 37° C. in PRP for about 3 minutes prior to the addition of sufficient ADP to provide a final ADP concentration of 5.86 μM.
# aqueous solubility = type: physicochemical; conditions: water, dihydrochloride salts
SMILES,IC50 [1] [µg/mL],solubility (aqueous solubility) [µg/mL]
"CCCC(CCC)CN1CCC(n2nnnc2CCCOc2ccc3nc4[nH]c(=O)[nH]c4cc3c2)CC1 [Cmpd 12j, [5-[3-(2,3-Dihydro-2-oxo-1H-imidazo [4,5-b]quinolin-7-yloxy)propyl]-1H-tetrazol-1-yl]-1-(2-propylpent-1-yl) piperidine dihydrochloride]",0.048,~2000
"Oc1nc2cc3cc(OCCCc4nnnn4C4CCN(CC5CCCCC5)CC4)ccc3[nH]c-2n1 [Cmpd 12d, (Cyclohexylmethyl)-4-[5-[3-(2,3-dihydro-2-oxo-1H-imidazo[4,5-b]quinolin-7-yloxy)propyl]-1H-tetrazol-1-yl]piperidine dihydrochloride]",0.009,> 10000
"Oc1nc2cc3cc(OCCCCc4nnnn4C4CCN(CC5CCCCC5)CC4)ccc3[nH]c-2n1 [Cmpd 13d, dihydrochloride]",0.012,> 5000
"CCC(CC)CN1CCC(n2nnnc2CCCCOc2ccc3nc4[nH]c(=O)[nH]c4cc3c2)CC1 [Cmpd 13e, [5-[3-(2,3-Dihydro-2-oxo-1H-imidazo[4,5-b]quinolin-7-yloxy)butyl]-1H-tetrazol-1-yl]-1-(2-ethybut-1-yl) piperidine dihyudrochloride]",0.0068,> 5000
"Oc1nc2cc3cc(OCCCc4nnnn4C4CCN(CC5CCCCO5)CC4)ccc3[nH]c-2n1 (stereo not drawn) [Cmpd 12k, [5-[3-(2,3-Dihydro-2-oxo-1H-imidazo[4,5-b]quinolin-7-yloxy)propyl]-1H-tetrazol-1-yl]-1-[(terahydro-2H-pyran-2-yl)methyl]piperidine dihydrochloride]",0.04,> 10000
"Oc1nc2cc3cc(OCCCc4nnnn4C4CCNCC4)ccc3[nH]c-2n1 [Cmpd 12a, [5-[3-(2,3-Dihydro-2-oxo-1H-imidazo[4,5-b]quinolin-7-yloxy)propyl]-1H-tetrazol-1-yl]piperidine dihydrochloride]",5.4,> 20000
"Oc1nc2cc3cc(OCCCCc4nnnn4C4CCN(Cc5ccc(F)cc5)CC4)ccc3[nH]c-2n1 [Cmpd 13c, dihydrochloride]",0.031,> 5000
"CC(C)CN1CCC(n2nnnc2CCCOc2ccc3nc4[nH]c(=O)[nH]c4cc3c2)CC1 [Cmpd 12f, [5-[3-(2,3-Dihydro-2-oxo-1H-imidazo[4,5-b]quinolin-7-yloxy)propyl]-1H-tetrazol-1-yl]-1-(2-methylprop-1-yl) piperidine dihydrochloride]",0.005,> 10000
"Oc1nc2cc3cc(OCCCc4nnnn4C4CCN(Cc5ccccc5)CC4)ccc3[nH]c-2n1 [Cmpd 12b, [5-[3-(2,3-Dihydro-2-oxo-1H-imidazo [4,5-b]quinolin-7-yloxy)propyl]-1H-tetrazol-l-yl]-1-(phenylmethyl) piperidine dihydrochloride]",0.022,> 10000
"Oc1nc2cc3cc(OCCCc4nnnn4C4CCN(CCc5ccccc5)CC4)ccc3[nH]c-2n1 [Cmpd 12g, [5-[3-f 2,3-Dihydro-2-oxo-1H-imidazo[4,5-b]quinolin-7-yloxy)propyl]-1H-tetrazol-1-yl]-1-(2-phenylethyl) piperidine dihydrochloride]",0.048,< 5000
"CCOC(=O)N1CCC(n2nnnc2CCCOc2ccc3nc4[nH]c(=O)[nH]c4cc3c2)CC1 [Cmpd 10a, Ethyl 4-[5-[3-(2,3-dihydro-2-oxo-1H-imidazo[4,5-b]quinolin-7-yloxy)propyl]-1H-tetrazol-1-yl]-1-piperidinecarboxylate]",0.2,
"Cl.Cl.O=c1[nH]c2cc3cc(OCCCc4nnnn4C4CCN(CC5CCCC5)CC4)ccc3nc2[nH]1 [Cmpd 12h, 1-Cyclopentylmethyl-4-[5-[3-(2,3-dihydro-2-oxo-1H-imidazo[4,5-b]quinolin-7-yloxy)propyl]-1H-tetrazol-1-yl]piperidine dihydrochloride]",0.005,2000 to 3000
"CC(C)CN1CCC(n2nnnc2CCCCOc2ccc3nc4[nH]c(=O)[nH]c4cc3c2)CC1 [Cmpd 13f, dihydrochloride]",0.005,> 10000
"Oc1nc2cc3cc(OCCCc4nnnn4C4CCN(Cc5ccc(F)cc5)CC4)ccc3[nH]c-2n1 [Cmpd 12c, [5-[3-(2,3-Dihydro-2-oxo-1H-imidazo[4,5-b]quinolin-7-yloxy)propyl]-1H-tetrazol-l-yl]-1-[(4-fluorophyl)methyl]piperidine dihydrochloride]",0.019,> 10000
"CCC(CC)CN1CCC(n2nnnc2CCCOc2ccc3nc4[nH]c(=O)[nH]c4cc3c2)CC1 [Cmpd 12e, [5-[3-(2, 3 -Dihydro-2-oxo-1H-imidazo [4,5-b]quinolin-7-yloxy)propyl]-1l H-tetrazol-1-yl]-1-(2-ethylbut-1-yl) piperidine dihydrochloride]",0.007,> 10000
"Oc1nc2cc3cc(OCCCCc4nnnn4C4CCNCC4)ccc3[nH]c-2n1 [Cmpd 13a, dihydrochloride]",2.6,~5000
"Cl.Cl.O=c1[nH]c2cc3cc(OCCCc4nnnn4C4CCN(CC5CCCCCC5)CC4)ccc3nc2[nH]1 [Cmpd 12i, 1-Cycloheptylmethyl-4-[5-[3-(2,3-dihydro-2-oxo-1H-imidazo[4,5-b]quinolin-7-yl-oxy)propyl]-1H-tetrazol-1-yl]piperidine dihydrochloride]",0.01,~1000
CCOC(=O)N1CCC(n2nnnc2CCCCOc2ccc3nc4[nH]c(=O)[nH]c4cc3c2)CC1 [Cmpd 10b],0.05,
"Oc1nc2cc3cc(OCCCCc4nnnn4C4CCN(Cc5ccccc5)CC4)ccc3[nH]c-2n1 [Cmpd 13b, dihydrochloride]",0.018,> 5000
